Earlier results in patent publication US20160375041A1, “INHIBITION OF ISOPRENOID BIOSYNTHETIC PATHWAYS TO TREAT AUTOIMMUNE DISORDERS” (priority 2013, published 2016).

Test system: Vγ9Vδ2 TCR
Conditions: microbial derived HMBPP; fold more potent as stimulatory pyrophosphate

## C/C(=C\COP(=O)(O)OP(=O)(O)O)CO [HMBPP, (E)-4-Hydroxy-3-methyl-but-2-enyl pyrophosphate]
  potency relative to any other known, naturally-occurring pyrophosphate: over 10,000
